Measured values taken from patent US12103914B2, “Compositions of biologically active menaquinol derivatives and methods of treatment” (Epizon Pharma, Inc., priority 2020, dated 2024).

System: vascular calcification and tissue calcification in patient with moderate calciphylaxis
Test: Treatment of patients diagnosed with moderate calciphylaxis (case examples)
Format: in vivo, human
Experimental: This example describes the administration of the disclosed compounds to subjects diagnosed with calciphylaxis. Typical symptoms include presentation of characteristic painful skin lesions (Nigwekar et al. (2015) Calciphylaxis: Risk Factors, Diagnosis, and Treatment. Am. J. Kidney Dis. 66:133-46). Definitive diagnosis of calciphylaxis is achieved via skin biopsy. Further conditions need to be considered for correct diagnosis.
The dosage form is a 5 mg, 10 mg, 25 mg, 50 mg or 100 mg soft-gel capsule. Two 50 mg capsules are administered once daily to the 100 mg dosage cohort. […]

| Substance | reduction in tissue calcification (45 kg patient, 20 mg, 10 weeks) | reduction in vascular calcification (suggested by change in examined biomarker levels) (45 kg patient, 20 mg, 10 weeks) | reduction in tissue calcification (65 kg patient, 100 mg, 8 weeks) | reduction in vascular calcification (suggested by change in examined biomarker levels) (65 kg patient, 100 mg, 8 weeks) | reduction in tissue calcification (70 kg patient, 50 mg, 3 months) | reduction in vascular calcification (suggested by change in examined biomarker levels) (70 kg patient, 50 mg, 3 months) |
| --- | --- | --- | --- | --- | --- | --- |
| Calcium salt of Menaquinol-7 | 15% | ~20% | 10% | ~10% |  |  |
| Potassium salt of Menaquinol-7 |  |  |  |  | 20% | ~25% |
